Laboratory results from PubChem BioAssay AID1918931 (Molecular Pharmacology Branch, DTP, NCI, 2023).

Tested on: 138582-337-R-J1-PDC complex spheroid viability
Assay: Anticancer human tumor 138582-337-R-J1-PDC patient-derived Merkel cell tumor cell line growth inhibition
Settings: for IC50: curve of first compound; for viability, T/C: stronger effect = lower value
Method in brief: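 Drug combinations with the LSD1 inhibitor iadademstat tested on tumor cells co-cultured as spheroids with endothelial cells and mesenchymal stem cells. Concentrations descended in half-log increments from clinical Cmax or 10 microM.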

[1] = second compound 0.1 µM, first compound 0.000316 µM
[2] = second compound 0.1 µM, first compound 0.001 µM
[3] = second compound 0.1 µM, first compound 0.00316 µM
[4] = second compound 0.1 µM, first compound 0.01 µM
[5] = second compound 0.1 µM, first compound 0.0316 µM
[6] = second compound 0.1 µM, first compound 0.1 µM
[7] = second compound 0.316 µM, first compound 0.000316 µM
[8] = second compound 0.316 µM, first compound 0.001 µM
[9] = second compound 0.316 µM, first compound 0.00316 µM
[10] = second compound 0.316 µM, first compound 0.01 µM
[11] = second compound 0.316 µM, first compound 0.0316 µM
[12] = second compound 0.316 µM, first compound 0.1 µM
[13] = second compound 1 µM, first compound 0.000316 µM
[14] = second compound 1 µM, first compound 0.001 µM
[15] = second compound 1 µM, first compound 0.00316 µM
[16] = second compound 1 µM, first compound 0.01 µM
[17] = second compound 1 µM, first compound 0.0316 µM
[18] = second compound 1 µM, first compound 0.1 µM
[19] = second compound 3.16 µM, first compound 0.000316 µM
[20] = second compound 3.16 µM, first compound 0.001 µM
[21] = second compound 3.16 µM, first compound 0.00316 µM
[22] = second compound 3.16 µM, first compound 0.01 µM
[23] = second compound 3.16 µM, first compound 0.0316 µM
[24] = second compound 3.16 µM, first compound 0.1 µM
[25] = second compound 10 µM, first compound 0.000316 µM
[26] = second compound 10 µM, first compound 0.001 µM
[27] = second compound 10 µM, first compound 0.00316 µM
[28] = second compound 10 µM, first compound 0.01 µM
[29] = second compound 10 µM, first compound 0.0316 µM
[30] = second compound 10 µM, first compound 0.1 µM
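Further: spheroids exposed to agents for 7 days.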
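Wherever viability, T/C is given: 100% = DMSO vehicle control viability.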

Q: For `CC(C)CC(NC(=O)C(Cc1ccccc1)NC(=O)c1cnccn1)B(O)O` (stereo not given) + NC1CC1c1ccc(-c2cccc(O)c2)cc1, which IC50 (second compound 0.1 µM) is on record?
A: 0.511 nM

Q: And the IC50 (second compound 0.316 µM)?
A: 0.476 nM

Q: And the IC50 (second compound 1 µM)?
A: 0.422 nM

Q: What about the IC50 (second compound 3.16 µM) of the same compound?
A: 0.37 nM

Q: And the IC50 (second compound 10 µM)?
A: 0.406 nM

Q: And the viability, T/C [1]?
A: 85.2%

Q: And the viability, T/C [2]?
A: 0.72%

Q: And the viability, T/C [3]?
A: 0.11%

Q: And the viability, T/C [4]?
A: 0.11%

Q: What about the viability, T/C [5] of the same compound?
A: 0.08%

Q: What about the viability, T/C [6] of the same compound?
A: 0.28%

Q: And the viability, T/C [7]?
A: 77%

Q: What about the viability, T/C [8] of the same compound?
A: 0.78%

Q: What about the viability, T/C [9] of the same compound?
A: 1.61%

Q: What about the viability, T/C [10] of the same compound?
A: 0.94%

Q: And the viability, T/C [11]?
A: 0.07%

Q: And the viability, T/C [12]?
A: 0.15%

Q: What about the viability, T/C [13] of the same compound?
A: 66%

Q: What about the viability, T/C [14] of the same compound?
A: 2.41%

Q: What about the viability, T/C [15] of the same compound?
A: 0.13%

Q: What about the viability, T/C [16] of the same compound?
A: 0.11%

Q: What about the viability, T/C [17] of the same compound?
A: 0.07%

Q: What about the viability, T/C [18] of the same compound?
A: 0.18%

Q: And the viability, T/C [19]?
A: 57.5%

Q: And the viability, T/C [20]?
A: 2.76%

Q: And the viability, T/C [21]?
A: 0.12%

Q: And the viability, T/C [22]?
A: 0.32%

Q: What about the viability, T/C [23] of the same compound?
A: 0.11%

Q: And the viability, T/C [24]?
A: 0.17%

Q: And the viability, T/C [25]?
A: 62.5%

Q: And the viability, T/C [26]?
A: 4.98%

Q: And the viability, T/C [27]?
A: 1.52%

Q: And the viability, T/C [28]?
A: 1.12%

Q: What about the viability, T/C [29] of the same compound?
A: 1.32%

Q: And the viability, T/C [30]?
A: 0.55%

Q: What does the source list for `CC(C)CC(NC(=O)CNC(=O)c1cc(Cl)ccc1Cl)B1OC(=O)CC(CC(=O)O)(C(=O)O)O1` (stereo not given) + NC1CC1c1ccc(-c2cccc(O)c2)cc1?
A: IC50 (second compound 0.1 µM): 11.8 nM; IC50 (second compound 0.316 µM): 8.59 nM; IC50 (second compound 1 µM): 8.37 nM; IC50 (second compound 3.16 µM): 10.1 nM; IC50 (second compound 10 µM): 9.49 nM; viability, T/C [1]: 94.3%; viability, T/C [2]: 98.9%; viability, T/C [3]: 101%; viability, T/C [4]: 58.3%; viability, T/C [5]: 1.47%; viability, T/C [6]: 0.24%; viability, T/C [7]: 80.7%; viability, T/C [8]: 95%; viability, T/C [9]: 115%; viability, T/C [10]: 42.8%; viability, T/C [11]: 4.55%; viability, T/C [12]: 0.6%; viability, T/C [13]: 92.5%; viability, T/C [14]: 112%; viability, T/C [15]: 140%; viability, T/C [16]: 38.1%; viability, T/C [17]: 2.09%; viability, T/C [18]: 0.29%; viability, T/C [19]: 113%; viability, T/C [20]: 104%; viability, T/C [21]: 126%; viability, T/C [22]: 50.3%; viability, T/C [23]: 2.37%; viability, T/C [24]: 0.26%; viability, T/C [25]: 110%; viability, T/C [26]: 139%; viability, T/C [27]: 129%; viability, T/C [28]: 46.3%; viability, T/C [29]: 0.57%; viability, T/C [30]: 0.27%

Q: Which IC50 (second compound 0.1 µM) does the source give for `COc1cc(Nc2ncc3c(n2)-c2ccc(Cl)cc2C(c2c(F)cccc2OC)=NC3)ccc1C(=O)O` + NC1CC1c1ccc(-c2cccc(O)c2)cc1 here?
A: 355 nM

Q: And the IC50 (second compound 0.316 µM)?
A: 210 nM

Q: And the IC50 (second compound 1 µM)?
A: 222 nM

Q: What about the IC50 (second compound 3.16 µM) of the same compound?
A: 183 nM

Q: And the IC50 (second compound 10 µM)?
A: 463 nM

Q: And the viability, T/C [3]?
A: 66.5%

Q: What about the viability, T/C [4] of the same compound?
A: 76.5%

Q: And the viability, T/C [5]?
A: 61.4%

Q: And the viability, T/C [6]?
A: 66.4%

Q: And the viability, T/C (second compound 0.1 µM, first compound 0.316 µM)?
A: 51.9%

Q: What about the viability, T/C (second compound 0.1 µM, first compound 1 µM) of the same compound?
A: 28.4%

Q: And the viability, T/C [9]?
A: 64.7%

Q: What about the viability, T/C [10] of the same compound?
A: 69.4%

Q: And the viability, T/C [11]?
A: 60.1%

Q: And the viability, T/C [12]?
A: 64.3%

Q: And the viability, T/C (second compound 0.316 µM, first compound 0.316 µM)?
A: 42.1%

Q: And the viability, T/C (second compound 0.316 µM, first compound 1 µM)?
A: 30.6%

Q: What about the viability, T/C [15] of the same compound?
A: 70.8%

Q: And the viability, T/C [16]?
A: 79.4%

Q: And the viability, T/C [17]?
A: 64.9%

Q: And the viability, T/C [18]?
A: 59%

Q: And the viability, T/C (second compound 1 µM, first compound 0.316 µM)?
A: 46.7%

Q: And the viability, T/C (second compound 1 µM, first compound 1 µM)?
A: 33.2%

Q: What about the viability, T/C [21] of the same compound?
A: 70.4%

Q: And the viability, T/C [22]?
A: 89.8%

Q: What about the viability, T/C [23] of the same compound?
A: 82.5%

Q: What about the viability, T/C [24] of the same compound?
A: 60.7%

Q: What about the viability, T/C (second compound 3.16 µM, first compound 0.316 µM) of the same compound?
A: 41.9%

Q: What about the viability, T/C (second compound 3.16 µM, first compound 1 µM) of the same compound?
A: 38.8%

Q: And the viability, T/C [27]?
A: 82.6%

Q: And the viability, T/C [28]?
A: 97%

Q: And the viability, T/C [29]?
A: 80.2%

Q: What about the viability, T/C [30] of the same compound?
A: 80.9%

Q: What about the viability, T/C (second compound 10 µM, first compound 0.316 µM) of the same compound?
A: 57.2%

Q: And the viability, T/C (second compound 10 µM, first compound 1 µM)?
A: 34.8%
